Data from ChEMBL document CHEMBL2157874, “First total synthesis of prasinic acid and its anticancer activity” (Bioorg Med Chem Lett, 2012).

Tests used:
NCI-H460 = test: Cytotoxicity against human H460 cells after 48 hrs by modified propidium iodide assay; format: functional, cell-based; settings: NCI-H460, 48 h
PANC-1 = test: Cytotoxicity against human PANC1 cells after 48 hrs by modified propidium iodide assay; format: functional, cell-based; settings: PANC-1, 48 h
MCF-10A = test: Cytotoxicity against human MCF10A cells after 48 hrs by modified propidium iodide assay; format: cell-based
Calu-1 = test: Cytotoxicity against human Calu1 cells after 48 hrs by modified propidium iodide assay; format: functional, cell-based; settings: Calu-1, 48 h
ACHN = test: Cytotoxicity against human ACHN cells after 48 hrs by modified propidium iodide assay; format: functional, cell-based
HCT-116 = test: Cytotoxicity against human HCT116 cells after 48 hrs by modified propidium iodide assay; format: functional, cell-based; settings: HCT-116, 48 h

Question: What does the source list for `CCCCCCCc1cc(OC(=O)c2c(O)cc(O)cc2CCCCCCC)cc(O)c1C(=O)O` [PRASINIC ACID]?
Answer: IC50 (NCI-H460): 9.1 µM; IC50 (PANC-1): 8.5 µM; IC50 (MCF-10A): > 30 µM; IC50 (Calu-1): 4.3 µM; IC50 (ACHN): 8.2 µM; IC50 (HCT-116): 7.8 µM
